Laboratory results reported in patent publication US20130302888A1, “CELL CULTURE METHOD AND SYSTEM FOR ESTABLISHING AN IN VITRO MODEL OF THE INTESTINAL BARRIER” (GATTEFOSSE SAS, priority 2011, published 2013).

How the values were obtained:
HT29-MTX monolayers = conditions: pH 7.4
[1] = tested on: Caco-2/HT29-MTX cocultures

Lucifer yellow [LY] was tested, and the Papp (HT29-MTX monolayers) was 2-3 10^−6 cm/s and the “Papp, effect of adding HT29-MTX to Caco-2 cells” value [1] was “drastically increases the Papp”.
